According to ChEMBL document CHEMBL3632569, “Chemical constituents from Hericium erinaceus and their ability to stimulate NGF-mediated neurite outgrowth on PC12 cells” (Bioorg Med Chem Lett, 2015):
Activity calls are given as the source filed them. The rule behind the calls is not given here.

Assays:
PC-12 [1] = assay: Effect on neurite outgrowth in rat PC12 cells at 10 and 20 uM after 48 hrs by inverted microscopic analysis; type: functional, cell-based
PC-12 [2] = assay: Stimulation of NGF-mediated neurite outgrowth in rat PC12 cells at 10 and 20 uM after 48 hrs by inverted microscopic analysis; type: functional, cell-based
[3] = Cytotoxicity against rat PC12 cells assessed as cell viability at 10 and 20 uM after 72 hrs by SRB assay; type: cell-based; conditions: pc-12, 72 h
PC-12 [4] = assay: Stimulation of NGF-mediated neurite outgrowth in rat PC12 cells at 20 uM after 48 hrs by inverted microscopic analysis (reference value: 15.32 +/- 0.25%); type: functional

| Structure (SMILES) | Activity (PC-12 [1]) | Activity (PC-12 [2]) | Activity [3] | Activity (PC-12 [4]) [%] |
| --- | --- | --- | --- | --- |
| COc1cc2c(c3c1CC[C@@](C)(CC(=O)C=C(C)C)O3)C(=O)OC2 | inactive | Active | Non-toxic | 17.85 |
| COc1cc2c(c3c1CCC(C)(CC(=O)C=C(C)C)O3)C(=O)OC2 (racemic) | inactive | Active | Non-toxic | 19.96 |
| CC(C)[C@@H](C)/C=C/[C@@H](C)[C@H]1CC[C@H]2C3=CC(=O)[C@@]4(O)C[C@@H](O)CC[C@]4(C)[C@@]3(O)CC[C@]12C | inactive | Active | Non-toxic |  |
| CC(C)[C@@H](C)/C=C/[C@@H](C)[C@H]1CC[C@H]2C3=C[C@@H](O)[C@@]4(O)C[C@@H](O)CC[C@]4(C)[C@H]3CC[C@]12C [CEREVISTEROL] | inactive | Active | Non-toxic |  |
| CC(C)[C@@H](C)/C=C/[C@@H](C)[C@H]1CC[C@@H]2[C@]1(C)CC[C@H]1[C@]23C=C[C@]2(C[C@@H](O)CC[C@]12C)OO3 [ERGOSTEROL PEROXIDE] | inactive | Active | Non-toxic |  |
| COc1cc2c(c3c1CC[C@](C)(CC(=O)C=C(C)C)O3)C(=O)OC2 | inactive | Active | Non-toxic | 21.79 |
| C[C@H]1[C@H](C)CC[C@]2(C(=O)O)CC[C@]3(C)C(=CC[C@@H]4[C@@]5(C)CC[C@H](O)C(C)(C)[C@@H]5CC[C@]43C)[C@H]12 [URSOLIC ACID] | inactive |  | Non-toxic |  |
| CCCCCCCCCCCCCCCCCCCC(O)C(=O)N[C@@H](CO)C(O)[C@H](O)CCCCCCCCCCCCCCCCC (stereo partly drawn) | inactive |  | Non-toxic |  |
| C/C(=C\CC(O)[C@@H](C)[C@H]1CC[C@@]2(C)C3=C(CC[C@]12C)[C@@]1(C)CC[C@H](O)C(C)(C)C1CC3)C(=O)O (stereo partly drawn) | inactive |  | Non-toxic |  |
| C[C@H](CC[C@H](O)C(C)(C)O)[C@H]1CC[C@@]2(C)C3=C(CC[C@]12C)[C@@]1(C)CC[C@H](O)C(C)(C)C1CC3 (stereo partly drawn) | inactive |  | Non-toxic |  |
| CC1(C)CC[C@]2(C(=O)O)CC[C@]3(C)C(=CC[C@@H]4[C@@]5(C)CC[C@H](O)C(C)(C)[C@@H]5CC[C@]43C)[C@@H]2C1 [OLEANOLIC_ACID] | inactive |  | Non-toxic |  |
| C=C(C)[C@@H]1CC[C@]2(CO)CC[C@]3(C)[C@H](CC[C@@H]4[C@@]5(C)CC[C@H](O)C(C)(C)[C@@H]5CC[C@]43C)[C@@H]12 [BETULIN] | inactive |  | Non-toxic |  |
